Assay results: patent US20220348590A1, “CYCLOOXYGENASE-2 INHIBITORS AND USES THEREOF” (The Board Institute, Inc., priority 2019, published 2022)
Read-outs that look alike come from different tables or passages of the source.

Key:
[1] = human plasma protein binding (PPB) assay; assay type: in vitro ADME; conditions: average, read-out: Human Plasma Protein Binding % Bound Avg (converted)
Procedure: We have adapted a previously reported cyclooxygenase enzymatic assay utilizing LCMS quantification of PGE2 as the product of COX-1 and COX2 catalyzed conversion of arachidonic acid to evaluate the binding properties of newly synthesized ligands [Cao, 2011]. These optimized and miniaturized (384-well plates) LCMS-based COX-1 and COX2 enzymatic assays enabled us to quickly evaluate newly synthesized ligands for COX2 binding affinity and selectivity vs COX-1. Using a shorter ligand-enzyme incubation time in the LCMS assay (2 minutes vs 10 minutes) also permitted us to prioritize ligands with faster binding kinetics. Considering the relatively slow on-rate kinetics of known coxibs, due to their 3-step binding mechanism [Marnett, 2009], we believe that optimizing this critical parameter will be key to the successful development of a COX2 PET tracer. Using these enzymatic assays, we have evaluated>200 newly synthesized ligands against COX2 and >20 ligands against COX-1. Another critical property necessary for a good PET radiotracer is to have low non-specific binding (NSB) to increase the free fraction and maximize the signal to noise ratio. This property can be evaluated using in-vitro protein binding assays, and we have now evaluated>50 newly synthesized ligands in mouse, rat and human plasma protein binding (PPB) assays as well as >15 ligands in a mouse brain protein binding (BPB) assay.

[2] = Mouse Plasma Protein Stability (% Remaining); assay type: in vitro ADME; conditions: average
[3] = Human Plasma Protein Stability (% Remaining); assay type: in vitro ADME; conditions: average
[4] = rat plasma protein binding (PPB) assay; assay type: in vitro ADME; conditions: average, read-out: Rat Plasma Protein Binding % Bound Avg (converted)
Outline: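 Free fraction was measured in vitro as a readout of non-specific binding. Plasma binding used mouse, rat and human plasma; brain binding used mouse brain.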

[5] = Human Microsome Stability; assay type: in vitro ADME; conditions: human microsomes
[6] = target: T1, human recombinant COX2 (hCOX2) (UniProt P35354); assay: LCMS-based COX2 enzymatic inhibition assay (PGE2 quantification); assay type: biochemical; parameters: COX2 2 minutes pge2/pge2d4 area ratio Avg; other: 2 minutes; readout pge2/pge2d4 area ratio; average; COX2 2 minutes pge2/pge2d4 area ratio Avg; LLE; average LLE; COX2 2 minutes pge2 area (counts) Avg; readout pge2 area (counts); other: 2 min; "ovine COX2 (oCOX2), human recombinant COX2 (hCOX2)"; conditions: 2 minutes; for COX2 2 minutes pge2/pge2d4 area ratio Avg. LLE / COX2 2 minutes pge2 area (counts) Avg. LLE: average LLE; for IC50: average
T1 sequence (P35354 1-604): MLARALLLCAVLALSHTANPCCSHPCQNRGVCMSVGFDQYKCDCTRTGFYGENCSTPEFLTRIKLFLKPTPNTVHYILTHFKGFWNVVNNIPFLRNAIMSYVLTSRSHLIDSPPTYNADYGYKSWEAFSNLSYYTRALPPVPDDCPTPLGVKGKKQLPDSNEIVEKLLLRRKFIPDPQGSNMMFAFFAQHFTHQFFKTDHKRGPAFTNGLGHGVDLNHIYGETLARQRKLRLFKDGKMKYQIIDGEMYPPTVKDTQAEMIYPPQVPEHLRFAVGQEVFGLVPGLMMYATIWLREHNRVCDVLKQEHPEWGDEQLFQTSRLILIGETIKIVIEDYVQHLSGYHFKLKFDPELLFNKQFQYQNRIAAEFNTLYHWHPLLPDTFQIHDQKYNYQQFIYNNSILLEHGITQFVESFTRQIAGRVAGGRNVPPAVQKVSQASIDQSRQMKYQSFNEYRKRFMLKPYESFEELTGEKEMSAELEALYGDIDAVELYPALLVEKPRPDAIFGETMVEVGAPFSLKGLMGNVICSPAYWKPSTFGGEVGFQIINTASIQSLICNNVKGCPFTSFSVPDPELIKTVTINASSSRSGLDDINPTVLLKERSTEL
Outline: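 PGE2 formed from arachidonic acid (final 5 μM, 2 min) was measured by LC-MS-MS against DMSO controls. Enzyme (oCOX-1 0.1 μg or hCOX2 0.2 μg) with hematin/epinephrine cofactors at pH 8.0 was given 10 min at 37 °C with compound first. Twelve-point curves run three times gave IC50.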

[7] = Rat Plasma Protein Stability (% Remaining); assay type: in vitro ADME; conditions: average
[8] = readout pge2/pge2d4 area ratio, read-out: COX2 2 minutes pge2/pge2d4 area ratio Avg. IC50
[9] = readout pge2 area (counts), read-out: COX2 2 minutes pge2 area (counts) Avg. IC50

SMILES | fraction unbound [1] | Mouse Plasma Protein Stability % Remaining Avg [2] [%] | Human Plasma Protein Stability % Remaining Avg [3] [%] | fraction unbound [4] | Human Microsome Stability % Remaining Avg [5] [%] | COX2 2 minutes pge2/pge2d4 area ratio Avg. LLE ([6]; readout pge2/pge2d4 area ratio) | IC50 [6, 8] [nM] | COX2 2 minutes pge2 area (counts) Avg. LLE ([6]; readout pge2 area (counts)) | IC50 [6, 9] [nM] | Rat Plasma Protein Stability % Remaining Avg [7] [%]
CS(=O)(=O)c1ccc(-c2cccc(OCc3cccs3)n2)cc1 [Compound 1, 2-(4-methanesulfonylphenyl)-6-[(thiophen-2-yl)methoxy]pyridine] | 0.002 | 119.5 | 94 | 0.006 | 38 | 4.864 | 3.27 | 4.806 | 3.66 | 100
CS(=O)(=O)c1ccc(-c2cccc(NCc3ccoc3)n2)cc1 [Compound 47, N-(furan-3-ylmethyl)-6-(4-(methylsulfonyl)phenyl)pyridin-2-amine] | 0.071 | 107.5 | 102.5 | 0.068 | 16 | 4.86 | 21.2 | 4.974 | 15.5 | 105.1
CS(=O)(=O)c1ccc(-c2cccc(NCc3ccco3)n2)cc1 [Compound 36] | 0.091 | 106 | 100 | 0.087 | 17 |  | 17.5 |  | 18.2 | 102.8
CS(=O)(=O)c1ccc(-c2cccc(NCc3cccs3)n2)cc1 [Compound 24] | 0.019 | 114.1 | 100 | 0.025 | 18 |  | 11.7 |  | 10.3 | 105.1
CS(=O)(=O)c1ccc(-c2nc(NCc3cccs3)cc3ccoc23)cc1 [Compound 2] | 0.003 | 108 | 99 | 0.009 | 27 | 3.981 | 5.13 | 3.975 | 5.45 | 98
COc1ncc(NCc2cccs2)nc1-c1ccc(S(C)(=O)=O)cc1 [Compound 29] | 0.016 | 93.2 | 93.9 | 0.019 | 24 | 5.399 | 14.9 | 5.474 | 14.5 | 114.5
CS(=O)(=O)c1ccc(-c2cc(F)cc(NCc3ccco3)n2)cc1 [Compound 14] | 0.02 | 99 | 118 | 0.024 | 21 | 5.172 | 8.81 | 5.203 | 9.37 | 104
